From patent publication US20250082584A1, “TRANSDERMAL THERAPEUTIC SYSTEM FOR THE TRANSDERMAL ADMINISTRATION OF SELEXIPAG” (LTS LOHMANN THERAPIE-SYSTEME AG, priority 2022, published 2025)

Test: Permeation of Selexipag and active metabolite MRE-269 through fresh human skin in modified Keshary-Chien diffusion cells
Assay type: in vitro ADME
Method: For determination of Selexipag and the Selexipag derived active metabolite MRE-269 permeated from fresh human skin tissue the following experiment was performed.
Modified Keshary-Chien diffusion cells were used for this experiment, in which fresh human skin was used as barrier between the donor and the acceptor part. The acceptor compartment contained the acceptor medium (0.9% NaCl+3% Vanillin+0.5% Methyl-β-cyclodextrin+30% Acetonitrile in aqua purificata), the donor chamber contained a liquid solution of Selexipag in oleic acid, dipropylene glycol, ethanol and aqua purificata. The liquid solution Composition 1 was applied as suspension, with undissolved Selexipag, whereas Composition 2 was centrifuged prior to application and only the clear centrifugate was applied. The composition of the selexipag-containing coating Compositions 1 and 2 of are summarized below.
Fresh human skin from plastic surgery was used (upper arm, person). […]
The samples of acceptor solution were filtrated with syringe filters and analyzed with HPLC. Quantification of Selexipag was performed with an external standard. […]
After 168 hrs of permeation the diffusion cells were dismantled, and the skin was rinsed with aqua purificata to remove residuals of the liquid solutions. […] The extracts were then diluted with acceptor medium, filtrated and analyzed with HPLC analogue to the permeation samples.

CC(C)N(CCCCOCC(=O)O)c1cnc(-c2ccccc2)c(-c2ccccc2)n1 [MRE-269]
Onset of release of MRE-269 compared to Selexipag in acceptor medium (FIG. 7 vs FIG. 8) (fresh human skin, acceptor medium, cumulative data): starts slower
Detection of active metabolite MRE-269 in permeation samples and skin extraction samples (liquid Selexipag solutions (Compositions 1 and 2) on fresh human skin, 500 μm, 32° C., sampling 24-48-120-144-168 hrs, HPLC): detected at each sampling timepoint in all permeation samples as well as in the skin extraction samples
